Tests used:
MV4-11 [1] = assay: Induction of apoptosis in human MV4-11 cells at 100 nM assessed as late apoptotic cells after 48 hrs by annexin V and propidium iodide staining method (reference value: 3.4 %); type: functional
cells [2] = conditions: Homo sapiens, Leukemia cell, 72 h
Description: Cytotoxicity against human primary leukemia cells isolated from acute myeloid leukemia patient expressing wild type FLT3 assessed as cell viability after 72 hrs by luciferase assay

Kasumi 1 = assay: cells; conditions: Homo sapiens, Kasumi 1, 72 h
Description: Cytotoxicity against human Kasumi-1 cells expressing c-KIT assessed as cell viability after 72 hrs by resazurin dye based fluorescence assay

TF-1 [3] = assay: cells; conditions: Homo sapiens, TF-1, 72 h
Description: Cytotoxicity against human TF1 cells expressing PDGFR-beta assessed as cell viability after 72 hrs by resazurin dye based fluorescence assay

cells [4] = conditions: Homo sapiens, Leukemia cell, 72 h; remark: listed apart in the source
Description: Cytotoxicity against human primary leukemia cells isolated from acute myeloid leukemia patient expressing FLT3-ITD mutation assessed as cell viability after 72 hrs by luciferase assay

Mus musculus [5] = assay: Plasma concentration at steady state in BALB/c mouse xenografted with BA/F3 cells expressing FLT3-ITD mutant at 5 mg/kg, po qd; type: ADME, organism-based, BaF3; parameters: dose 5 mg/kg, route oral; conditions: in vivo
[6] = target: T1, Mast/stem cell growth factor receptor Kit (Homo sapiens, UniProt P10721); assay: Inhibition of SCF-induced phosphorylation of c-KIT in human TF1 cells after 1 hr by immunoblot analysis; type: cell-based, TF-1
T1 sequence (P10721 whole entry): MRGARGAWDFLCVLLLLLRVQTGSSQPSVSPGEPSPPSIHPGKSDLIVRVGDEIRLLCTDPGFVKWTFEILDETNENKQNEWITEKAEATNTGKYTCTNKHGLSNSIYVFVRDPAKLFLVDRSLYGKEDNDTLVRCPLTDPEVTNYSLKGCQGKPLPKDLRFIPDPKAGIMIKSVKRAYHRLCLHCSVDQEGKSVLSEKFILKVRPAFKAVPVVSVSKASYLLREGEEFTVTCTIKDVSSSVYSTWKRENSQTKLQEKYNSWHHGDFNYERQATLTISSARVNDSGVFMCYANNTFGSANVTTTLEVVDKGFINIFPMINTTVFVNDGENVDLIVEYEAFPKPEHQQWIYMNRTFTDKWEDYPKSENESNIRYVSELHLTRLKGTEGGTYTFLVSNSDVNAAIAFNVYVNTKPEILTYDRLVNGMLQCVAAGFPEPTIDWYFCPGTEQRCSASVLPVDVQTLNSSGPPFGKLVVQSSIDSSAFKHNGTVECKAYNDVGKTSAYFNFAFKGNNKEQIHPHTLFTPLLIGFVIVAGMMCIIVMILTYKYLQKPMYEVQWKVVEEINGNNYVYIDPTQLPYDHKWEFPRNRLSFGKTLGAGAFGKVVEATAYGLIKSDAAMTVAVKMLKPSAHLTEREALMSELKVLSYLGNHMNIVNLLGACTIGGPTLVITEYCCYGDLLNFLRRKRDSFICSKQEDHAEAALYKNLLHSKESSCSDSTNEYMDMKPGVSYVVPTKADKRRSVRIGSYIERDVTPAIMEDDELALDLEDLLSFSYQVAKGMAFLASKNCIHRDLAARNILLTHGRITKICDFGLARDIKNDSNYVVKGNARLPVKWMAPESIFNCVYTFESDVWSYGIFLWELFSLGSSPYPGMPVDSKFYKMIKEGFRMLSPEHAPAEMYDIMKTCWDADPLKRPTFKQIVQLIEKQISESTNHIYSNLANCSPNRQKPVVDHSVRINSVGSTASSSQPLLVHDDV

THP-1 = assay: cells; conditions: Homo sapiens, THP-1, 72 h
Description: Cytotoxicity against human THP1 cells assessed as cell viability after 72 hrs by resazurin dye based fluorescence assay

[7] = target: Proto-oncogene tyrosine-protein kinase Src (Homo sapiens, UniProt P12931); assay: Inhibition of Src
Proto-oncogene tyrosine-protein kinase Src, sequence (P12931 2-536 limits assumed): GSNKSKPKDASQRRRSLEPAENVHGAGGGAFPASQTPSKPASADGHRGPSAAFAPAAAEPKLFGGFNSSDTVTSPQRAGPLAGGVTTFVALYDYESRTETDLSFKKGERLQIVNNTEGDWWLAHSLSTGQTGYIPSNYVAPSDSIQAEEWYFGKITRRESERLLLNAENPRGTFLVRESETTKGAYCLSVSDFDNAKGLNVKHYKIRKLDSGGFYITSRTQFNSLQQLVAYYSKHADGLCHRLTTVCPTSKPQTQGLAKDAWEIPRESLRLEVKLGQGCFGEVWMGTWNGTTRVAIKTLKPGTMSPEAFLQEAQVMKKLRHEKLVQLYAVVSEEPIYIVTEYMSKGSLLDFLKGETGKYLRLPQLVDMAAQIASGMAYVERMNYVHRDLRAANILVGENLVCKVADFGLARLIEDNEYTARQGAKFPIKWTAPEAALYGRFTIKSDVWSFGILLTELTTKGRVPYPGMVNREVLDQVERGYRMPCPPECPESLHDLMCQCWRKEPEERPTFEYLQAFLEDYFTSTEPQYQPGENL

Mus musculus [8] = species on record: Mus musculus; assay: Toxicity in BALB/c mouse assessed as signs of neutropenia after 100 days; type: organism-based; conditions: in vivo, 2400 h
BaF3 [9] = assay: Antitumor activity against mouse BA/F3 cells expressing FLT3-ITD mutant xenografted in BALB/c mouse myeloproliferative model assessed as increase in host survival days at 1 mg/kg, po qd relative to control (reference value: 20 days); type: functional, organism-based; parameters: dose 1 mg/kg
Mus musculus [10] = assay: Plasma concentration at steady state in BALB/c mouse xenografted with BA/F3 cells expressing FLT3-ITD mutant at 0.05 mg/kg, po qd; type: ADME, organism-based, BaF3; parameters: dose 0.05 mg/kg, route oral; conditions: in vivo
MV4-11 [11] = assay: Induction of apoptosis in human MV4-11 cells at 100 nM assessed as apoptotic cells after 48 hrs by annexin V and propidium iodide staining method (reference value: 2.1 %); type: functional
[12] = Oral bioavailability in BALB/c mouse; type: ADME, organism-based; conditions: in vivo
TF-1 [13] = assay: cells; conditions: Homo sapiens, TF-1, 72 h; remark: listed apart in the source
Description: Cytotoxicity against human TF1 cells assessed as cell viability after 72 hrs by resazurin dye based fluorescence assay

Leukemia cell = assay: Cytotoxicity against human primary leukemia cells isolated from acute myeloid leukemia patient expressing wild type FLT3 assessed as cell viability at 0.0005 to 10 uM after 72 hrs by luciferase assay; type: functional, cell-based
BaF3 [14] = assay: Antitumor activity against mouse BA/F3 cells expressing FLT3-ITD mutant xenografted in BALB/c mouse myeloproliferative model assessed as increase in host survival days at 5 mg/kg, po qd relative to control (reference value: 20 days); type: functional, organism-based; parameters: dose 5 mg/kg
MV4-11 [15] = assay: Induction of apoptosis in human MV4-11 cells at 100 nM assessed as late apoptotic cells after 24 hrs by annexin V and propidium iodide staining method (reference value: 5.1 %); type: functional
TF-1 [16] = assay: cells; conditions: Homo sapiens, TF-1, 72 h; remark: listed apart in the source
Description: Cytotoxicity against human TF1 cells expressing FMS assessed as cell viability after 72 hrs by resazurin dye based fluorescence assay

[17] = target: T1, Mast/stem cell growth factor receptor Kit; assay: Inhibition of c-KIT-mediated ERK 1/2 phosphorylation in human TF1 cells at 4 to 12 nM after 1 hr by immunoblot analysis; type: cell-based, TF-1
TF-1 [18] = assay: cells; conditions: Homo sapiens, TF-1, 72 h; remark: listed apart in the source
Description: Cytotoxicity against human TF1 cells expressing wild type c-KIT assessed as cell viability after 72 hrs by resazurin dye based fluorescence assay

BaF3 [19] = assay: Antitumor activity against mouse BA/F3 cells expressing FLT3-ITD mutant xenografted in BALB/c mouse myeloproliferative model assessed as increase in host survival days at 0.05 mg/kg, po qd relative to control (reference value: 20 days); type: functional, organism-based; parameters: dose 0.05 mg/kg
[20] = target: T2, Tyrosine-protein kinase receptor UFO (Homo sapiens, UniProt P30530); assay: Inhibition of AXL
T2 sequence (P30530 whole entry): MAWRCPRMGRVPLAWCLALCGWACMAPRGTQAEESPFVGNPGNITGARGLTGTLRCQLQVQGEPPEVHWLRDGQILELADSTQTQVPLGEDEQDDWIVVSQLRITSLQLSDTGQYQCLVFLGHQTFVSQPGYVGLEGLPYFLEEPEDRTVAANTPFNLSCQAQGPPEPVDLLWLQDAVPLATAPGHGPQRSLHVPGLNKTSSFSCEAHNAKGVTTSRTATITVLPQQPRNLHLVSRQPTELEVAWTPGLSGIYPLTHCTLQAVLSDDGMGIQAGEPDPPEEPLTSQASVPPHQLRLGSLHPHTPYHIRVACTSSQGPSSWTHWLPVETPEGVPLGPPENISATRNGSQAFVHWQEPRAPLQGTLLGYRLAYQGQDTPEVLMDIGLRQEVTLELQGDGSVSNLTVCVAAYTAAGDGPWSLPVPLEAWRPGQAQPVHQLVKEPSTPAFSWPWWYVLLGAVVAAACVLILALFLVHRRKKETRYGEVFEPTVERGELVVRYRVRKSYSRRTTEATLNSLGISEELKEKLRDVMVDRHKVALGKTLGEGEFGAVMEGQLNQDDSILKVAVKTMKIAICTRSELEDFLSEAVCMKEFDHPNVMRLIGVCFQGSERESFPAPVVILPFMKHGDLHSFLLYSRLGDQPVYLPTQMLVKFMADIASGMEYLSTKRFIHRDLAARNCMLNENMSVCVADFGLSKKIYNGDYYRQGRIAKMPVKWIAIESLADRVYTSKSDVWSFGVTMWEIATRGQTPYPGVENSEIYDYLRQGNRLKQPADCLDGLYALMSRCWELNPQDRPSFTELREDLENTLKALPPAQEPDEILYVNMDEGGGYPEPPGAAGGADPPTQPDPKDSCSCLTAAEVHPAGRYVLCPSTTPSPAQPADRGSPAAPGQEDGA

MV4-11 [21] = assay: Induction of apoptosis in human MV4-11 cells at 100 nM assessed as prenecrotic cells after 48 hrs by annexin V and propidium iodide staining method (reference value: 91.8 %); type: functional
BaF3 [22] = assay: Antitumor activity against mouse BA/F3 cells expressing FLT3-ITD mutant xenografted in BALB/c mouse myeloproliferative model assessed as increase in host survival days administered by oral gavage qd relative to control; type: functional
Mus musculus [23] = species on record: Mus musculus; assay: Toxicity in BALB/c mouse assessed as signs of anemia after 100 days; type: organism-based; conditions: in vivo, 2400 h
[24] = target: Receptor-type tyrosine-protein kinase FLT3 (Homo sapiens, UniProt P36888, ITD); assay: Inhibition of FLT3 ITD mutant mediated ERK 1/2 phosphorylation in human MV4-11 cells by immunoblot analysis; type: cell-based
Receptor-type tyrosine-protein kinase FLT3, sequence (P36888 whole entry, looked up, change not shown): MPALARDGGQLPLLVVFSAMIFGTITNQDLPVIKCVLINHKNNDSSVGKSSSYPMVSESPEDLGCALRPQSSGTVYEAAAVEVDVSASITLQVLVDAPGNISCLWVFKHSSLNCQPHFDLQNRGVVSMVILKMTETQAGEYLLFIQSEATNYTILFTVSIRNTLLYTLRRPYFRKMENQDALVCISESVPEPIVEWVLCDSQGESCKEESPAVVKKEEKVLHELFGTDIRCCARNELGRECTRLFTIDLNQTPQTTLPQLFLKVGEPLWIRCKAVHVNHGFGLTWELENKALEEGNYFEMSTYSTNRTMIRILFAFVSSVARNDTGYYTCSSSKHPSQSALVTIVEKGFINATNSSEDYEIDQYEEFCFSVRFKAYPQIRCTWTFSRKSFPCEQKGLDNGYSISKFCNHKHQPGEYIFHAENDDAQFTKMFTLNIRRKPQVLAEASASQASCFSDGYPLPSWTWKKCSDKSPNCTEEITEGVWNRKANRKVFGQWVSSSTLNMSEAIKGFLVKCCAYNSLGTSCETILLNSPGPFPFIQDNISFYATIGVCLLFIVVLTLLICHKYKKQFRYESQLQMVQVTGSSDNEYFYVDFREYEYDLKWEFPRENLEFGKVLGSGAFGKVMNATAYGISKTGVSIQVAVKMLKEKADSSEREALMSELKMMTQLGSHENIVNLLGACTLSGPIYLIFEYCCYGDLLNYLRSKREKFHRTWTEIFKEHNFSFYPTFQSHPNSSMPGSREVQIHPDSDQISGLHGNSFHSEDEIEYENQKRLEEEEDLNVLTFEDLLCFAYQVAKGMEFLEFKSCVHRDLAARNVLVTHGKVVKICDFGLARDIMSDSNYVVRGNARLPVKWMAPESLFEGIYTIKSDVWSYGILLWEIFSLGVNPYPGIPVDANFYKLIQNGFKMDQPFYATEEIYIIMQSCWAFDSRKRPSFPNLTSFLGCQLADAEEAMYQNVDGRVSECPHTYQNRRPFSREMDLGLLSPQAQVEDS

cells [25] = conditions: Homo sapiens, Leukemia cell, 72 h; remark: listed apart in the source
Description: Cytotoxicity against human primary leukemia cells isolated from acute myeloid leukemia patient expressing FLT3-D835Y mutation assessed as cell viability after 72 hrs by luciferase assay

Mus musculus [26] = assay: Plasma concentration at steady state in BALB/c mouse xenografted with BA/F3 cells expressing FLT3-ITD mutant at 0.25 mg/kg, po qd; type: ADME, organism-based, BaF3; parameters: dose 0.25 mg/kg, route oral; conditions: in vivo
MV4-11 [27] = assay: Induction of apoptosis in human MV4-11 cells at 100 nM assessed as prenecrotic cells after 24 hrs by annexin V and propidium iodide staining method (reference value: 90.3 %); type: functional
[28] = target: T1, Mast/stem cell growth factor receptor Kit; assay: Inhibition of human recombinant c-Kit by radiometric assay
Mus musculus [29] = assay: Plasma concentration at steady state in BALB/c mouse xenografted with BA/F3 cells expressing FLT3-ITD mutant at 1 mg/kg, po qd; type: ADME, organism-based, BaF3; parameters: dose 1 mg/kg, route oral; conditions: in vivo

SMILES: Nc1nc(Nc2ccc([C@H]3CC[C@H](N4CCOCC4)CC3)cc2)nn1-c1ccccn1
- Activity (MV4-11 [1]): 42.8%
- IC50 (cells [2]): 20 nM
- IC50 (Kasumi 1): 30 nM
- IC50 (TF-1 [3]): 330 nM
- IC50 (cells [4]): 12 nM
- Cpss (Mus musculus [5]): 641 ng/mL
- IC50 [6]: 4 nM
- inhibition ([6]; TF-1): Dose-dependent effect
- IC50 (THP-1): > 4 µM
- Ki [7]: 770 nM
- Activity (Mus musculus [8]): Non-toxic
- MSD (BaF3 [9]): 34 days
- Cpss (Mus musculus [10]): 4 ng/mL
- Activity (MV4-11 [11]): 26.3%
- bioavailability [12]: 100%
- IC50 (TF-1 [13]): > 4 µM
- Activity (Leukemia cell): > 80%
- MSD (BaF3 [14]): 62 days
- Activity (MV4-11 [15]): 32.5%
- IC50 (TF-1 [16]): > 4 µM
- IC50 [17]: 4 nM
- IC50 (TF-1 [18]): 1.6 nM
- MSD (BaF3 [19]): 24 days
- Ki [20]: 40 nM
- Activity (MV4-11 [21]): 28.5%
- Activity (BaF3 [22]): Dose-dependent effect
- Activity (Mus musculus [23]): Non-toxic
- IC50 [24]: 1.3 nM
- IC50 (cells [25]): 220 nM
- Cpss (Mus musculus [26]): 22 ng/mL
- Activity (MV4-11 [27]): 54.5%
- Ki [28]: < 1 nM
- Cpss (Mus musculus [29]): 91 ng/mL

Reference: ChEMBL document CHEMBL1955771, “VX-322: a novel dual receptor tyrosine kinase inhibitor for the treatment of acute myelogenous leukemia” (J Med Chem, 2012)
